In PubChem BioAssay (NCI):
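Five compound concentrations were applied to cells in 96-well plates for 48 hours; endpoints were derived by simple linear interpolation of the resulting dose-response curve. The concentration for full growth arrest is given as TGI.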

How the values were obtained:
Experiment in all cases: growth of human tumour cells (NCI), 48 h
[1] = system: T-47D breast
[2] = system: RXF 393 renal
[3] = system: CAKI-1 renal
[4] = system: DU-145 prostate
[5] = system: NCI/ADR-RES ovarian
[6] = system: UACC-257 melanoma
[7] = system: MDA-MB-231 breast
[8] = system: SK-MEL-28 melanoma
[9] = system: SF-295 CNS
[10] = system: COLO 205 colon
[11] = system: NCI-H522 lung
[12] = system: NCI-H23 lung
[13] = system: MCF7 breast
[14] = system: LOX IMVI melanoma
[15] = system: OVCAR-3 ovarian
[16] = system: SF-539 CNS
[17] = system: ACHN renal
[18] = system: BT-549 breast
[19] = system: HCT-116 colon
[20] = system: A498 renal
[21] = system: UACC-62 melanoma
[22] = system: SK-MEL-5 melanoma
[23] = system: MDA-MB-435
[24] = system: SK-MEL-2 melanoma
[25] = system: OVCAR-8 ovarian
[26] = system: OVCAR-4 ovarian
[27] = system: SF-268 CNS
[28] = system: HL-60(TB) leukemia
[29] = system: A549 NSCLC
[30] = system: MALME-3M melanoma
[31] = system: HCC-2998 colon
[32] = system: UO-31 renal
[33] = system: 786-0 renal
[34] = system: HOP-92 NSCLC
[35] = system: RPMI-8226 leukemia
[36] = system: HOP-62 NSCLC
[37] = system: SK-OV-3 ovarian
[38] = system: U251 CNS
[39] = system: K-562 leukemia
[40] = system: SNB-75 CNS
[41] = system: HCT-15 colon
[42] = system: NCI-H226 lung
[43] = system: MDA-N
[44] = system: PC-3 prostate
[45] = system: TK-10 renal
[46] = system: HT29 colon
[47] = system: SR leukemia
[48] = system: MOLT-4 leukemia
[49] = system: SNB-19 CNS
[50] = system: CCRF-CEM leukemia
[51] = system: SN12C renal
[52] = system: NCI-H460 lung
[53] = system: OVCAR-5 ovarian
[54] = system: EKVX NSCLC
[55] = system: SW-620 colon
[56] = system: HS 578T breast
[57] = system: KM12 colon
[58] = system: IGROV1 ovarian
[59] = system: M14 melanoma

CC1(C)CCCCCCCCCC(C)(CCCCCCCCCCCCO)C1=O (stereo unspecified)
TGI [1]: 34 µM
TGI [2]: 33.3 µM
TGI [3]: 41.5 µM
TGI [4]: 32 µM
TGI [5]: 32.6 µM
TGI [6]: 29.9 µM
TGI [7]: 29.9 µM
TGI [8]: 32.6 µM
TGI [9]: 30.4 µM
TGI [10]: 62.7 µM
TGI [11]: 30.3 µM
TGI [12]: 33.7 µM
TGI [13]: 30.5 µM
TGI [14]: 32.3 µM
TGI [15]: 29.4 µM
TGI [16]: 32.5 µM
TGI [17]: 28.4 µM
TGI [18]: 30.4 µM
TGI [19]: 31.7 µM
TGI [20]: 35.7 µM
TGI [21]: 33.7 µM
TGI [22]: 35.3 µM
TGI [23]: 33 µM
TGI [24]: 32.7 µM
TGI [25]: 28.4 µM
TGI [26]: 32.7 µM
TGI [27]: 32 µM
TGI [28]: 38.3 µM
TGI [29]: 29.9 µM
TGI [30]: 30.6 µM
TGI [31]: 13.7 µM
TGI [32]: 32.1 µM
TGI [33]: 32.6 µM
TGI [34]: 31.7 µM
TGI [35]: 42.2 µM
TGI [36]: 47.5 µM
TGI [37]: 33.2 µM
TGI [38]: 33 µM
TGI [39]: 54.3 µM
TGI [40]: 29.7 µM
TGI [41]: 55 µM
TGI [42]: 22.5 µM
TGI [43]: 33.7 µM
TGI [44]: 32.6 µM
TGI [45]: 31.6 µM
TGI [46]: 31 µM
TGI [47]: > 100 µM
TGI [48]: 76.7 µM
TGI [49]: 26.1 µM
TGI [50]: 50.7 µM
TGI [51]: 31.4 µM
TGI [52]: 33.4 µM
TGI [53]: 34.1 µM
TGI [54]: 34.8 µM
TGI [55]: 32.5 µM
TGI [56]: 38 µM
TGI [57]: 31.1 µM
TGI [58]: 33.7 µM

CCn1c2ccc(O)c(C(=O)OC)c2c2cc3ccccc3c(O)c21
TGI [1]: 34.1 µM
TGI [2]: > 100 µM
TGI [3]: 33.6 µM
TGI [4]: 40.8 µM
TGI [5]: 57.2 µM
TGI [6]: > 100 µM
TGI [7]: > 100 µM
TGI [8]: 87.4 µM
TGI [9]: 64.5 µM
TGI [10]: 29.5 µM
TGI [11]: 41.2 µM
TGI [12]: 52.4 µM
TGI [13]: > 100 µM
TGI [15]: 47.3 µM
TGI [16]: 49.2 µM
TGI [17]: 54.1 µM
TGI [18]: 50.7 µM
TGI [19]: 29.2 µM
TGI [20]: 39.5 µM
TGI [21]: > 100 µM
TGI [22]: 38.5 µM
TGI [23]: 48.3 µM
TGI [24]: 36.6 µM
TGI [25]: 56.9 µM
TGI [26]: 75.1 µM
TGI [27]: 63.6 µM
TGI [28]: 60 µM
TGI [29]: 83 µM
TGI [30]: 20.7 µM
TGI [31]: 38.3 µM
TGI [32]: > 100 µM
TGI [33]: 30.7 µM
TGI [34]: 21.3 µM
TGI [59]: 47.5 µM
TGI [35]: 33.3 µM
TGI [36]: 45 µM
TGI [37]: 43.8 µM
TGI [38]: 69.2 µM
TGI [39]: > 100 µM
TGI [41]: 56 µM
TGI [42]: 83.8 µM
TGI [43]: 72.4 µM
TGI [44]: 78.8 µM
TGI [45]: 55.7 µM
TGI [46]: 56.2 µM
TGI [47]: 57.6 µM
TGI [48]: 73.5 µM
TGI [49]: > 100 µM
TGI [50]: 70 µM
TGI [51]: 41.6 µM
TGI [52]: 54.9 µM
TGI [53]: 73.3 µM
TGI [54]: 67.4 µM
TGI [56]: 45.2 µM
TGI [57]: 33.6 µM
TGI [58]: 31.2 µM

COc1cc([C@H]2Oc3c(OC)cc(CCCO)cc3[C@@H]2CO)ccc1O
TGI [1]: > 100 µM
TGI [2]: > 100 µM
TGI [4]: > 100 µM
TGI [5]: > 100 µM
TGI [6]: > 100 µM
TGI [7]: > 100 µM
TGI [8]: > 100 µM
TGI [9]: > 100 µM
TGI [10]: > 100 µM
TGI [11]: > 100 µM
TGI [12]: > 100 µM
TGI [13]: > 100 µM
TGI [14]: > 100 µM
TGI [15]: > 100 µM
TGI [16]: > 100 µM
TGI [17]: > 100 µM
TGI [18]: > 100 µM
TGI [19]: > 100 µM
TGI [20]: > 100 µM
TGI [21]: > 100 µM
TGI [22]: > 100 µM
TGI [23]: > 100 µM
TGI [24]: > 100 µM
TGI [25]: > 100 µM
TGI [26]: > 100 µM
TGI [27]: > 100 µM
TGI [28]: > 100 µM
TGI [29]: > 100 µM
TGI [30]: > 100 µM
TGI [31]: > 100 µM
TGI [32]: > 100 µM
TGI [33]: > 100 µM
TGI [34]: > 100 µM
TGI [59]: > 100 µM
TGI [35]: > 100 µM
TGI [36]: > 100 µM
TGI [37]: > 100 µM
TGI [38]: > 100 µM
TGI [39]: > 100 µM
TGI [40]: > 100 µM
TGI [41]: > 100 µM
TGI [42]: > 100 µM
TGI [43]: > 100 µM
TGI [44]: > 100 µM
TGI [45]: > 100 µM
TGI [46]: > 100 µM
TGI [47]: > 100 µM
TGI [48]: > 100 µM
TGI [49]: > 100 µM
TGI [50]: > 100 µM
TGI [51]: > 100 µM
TGI [52]: > 100 µM
TGI [53]: > 100 µM
TGI [54]: > 100 µM
TGI [55]: > 100 µM
TGI [56]: > 100 µM
TGI [57]: > 100 µM
TGI [58]: > 100 µM

CCOC(=O)/C(C#N)=C(/NNc1ccccc1)c1ccncc1C(=O)O
TGI [1]: > 100 µM
TGI [2]: > 100 µM
TGI [3]: > 100 µM
TGI [4]: > 100 µM
TGI [5]: > 100 µM
TGI [6]: > 100 µM
TGI [7]: > 100 µM
TGI [8]: > 100 µM
TGI [9]: > 100 µM
TGI [10]: 22.5 µM
TGI [11]: > 100 µM
TGI [12]: > 100 µM
TGI [13]: > 100 µM
TGI [14]: > 100 µM
TGI [15]: > 100 µM
TGI [16]: > 88.3 µM
TGI [17]: > 100 µM
TGI [18]: > 100 µM
TGI [19]: > 100 µM
TGI [20]: > 100 µM
TGI [21]: > 100 µM
TGI [22]: > 48.9 µM
TGI [23]: > 100 µM
TGI [24]: > 100 µM
TGI [25]: > 100 µM
TGI [26]: > 100 µM
TGI [27]: > 100 µM
TGI [28]: > 100 µM
TGI [29]: > 100 µM
TGI [30]: > 100 µM
TGI [31]: > 95.6 µM
TGI [32]: > 100 µM
TGI [33]: > 100 µM
TGI [34]: > 100 µM
TGI [59]: > 100 µM
TGI [35]: > 100 µM
TGI [36]: > 100 µM
TGI [37]: > 100 µM
TGI [38]: > 100 µM
TGI [39]: > 100 µM
TGI [40]: > 100 µM
TGI [41]: > 100 µM
TGI [42]: > 100 µM
TGI [43]: > 100 µM
TGI [44]: > 100 µM
TGI [45]: > 100 µM
TGI [46]: > 100 µM
TGI [47]: > 100 µM
TGI [48]: > 100 µM
TGI [49]: > 100 µM
TGI [50]: > 100 µM
TGI [51]: > 100 µM
TGI [52]: > 100 µM
TGI [53]: > 100 µM
TGI [54]: > 100 µM
TGI [55]: > 100 µM
TGI [56]: > 100 µM
TGI [57]: > 100 µM
TGI [58]: > 100 µM
